Measured values: publication PMC4832832 (Archiv Der Pharmazie, 2015)
“Also recorded” adds a separate entry of the source. Like-named read-outs stand apart in the source and are kept apart here.

Tests used:
Reovirus‐1 = test: organism not typed; format: cell-based
Vero cells = settings: Vero cell cultures
HeLa cells = settings: HeLa cell cultures
Punta Toro virus = test: microbe, parasite or virus in culture; format: cell-based
Parainfluenza‐3 virus = test: organism not typed; format: cell-based
Sindbis virus = test: microbe, parasite or virus in culture; format: cell-based
[1] = tested on: Respiratory syncytial virus; format: cell-based; settings: for inhibitory activity against respiratory syncytial virus (in words): HeLa cells
[2] = tested on: Vesicular stomatitis virus; format: cell-based; settings: for EC50: read-out: EC50 Vesicular stomatitis virus
Coxsackie virus B4 [3] = format: cell-based; settings: for EC50: read-out: EC50 Coxsackie virus B4, reduce virus-induced cytopathogenicity by 50%
Coxsackie virus B4 [4] = format: cell-based; settings: Vero cell cultures
[5] = tested on: Varicella-zoster virus (VZV) TK+(Oka strain); format: cell-based; settings: for activity against TK+ VZV strain (in words): HEL cells; for activity against varicella‐zoster virus (in words): strain not given
[6] = tested on: Varicella-zoster virus (VZV) TK-(Oka strain); format: cell-based; settings: HEL cells
[7] = microscopically detectable alteration of normal cell morphology
[8] = Vero cell cultures, unit of the DS-10.000 line
[9] = HeLa cell cultures, unit of the DS-10.000 line

## NC(=O)c1ncn([C@@H]2O[C@H](CO)[C@@H](O)[C@H]2O)n1 [Ribavirin, ribavirin]
Reovirus‐1; Vero, read-out: EC50 Reovirus‐1
  EC50: > 250 µM
Vero cells; [7]
  Minimum cytotoxic concentration: >250 µM
HeLa cells; [7]
  Minimum cytotoxic concentration: >250 µM
Punta Toro virus; Punta Toro virus, Vero, read-out: EC50 Punta Toro virus
  EC50: 112 µM
Parainfluenza‐3 virus; Vero, read-out: EC50 Parainfluenza‐3 virus
  EC50: 85 µM
Sindbis virus; Sindbis virus, Vero, read-out: EC50 Sindbis virus
  EC50: > 250 µM

## Diethyl [(4‐(1‐(2,3,5‐tri‐O‐benzoyl‐β‐D‐ribofuranos‐1‐yl)‐1,2,3‐triazol‐4‐yl)phenyl)(2‐bromophenylamino)methyl]phosphonate [Compound 4c]
[1]
  inhibitory activity against respiratory syncytial virus (in words): slight inhibition; also recorded: modest inhibitory activity
[2]
  EC50: > 100 µM
HeLa cells; [7]
  Minimum cytotoxic concentration: >100 µM
Coxsackie virus B4 [3]; HeLa cell cultures
  EC50: > 100 µM

## Diethyl [(4‐(1‐(2,3,5‐tri‐O‐benzoyl‐β‐D‐ribofuranos‐1‐yl)‐1,2,3‐triazol‐4‐yl)phenyl)(2‐chlorophenylamino)methyl]phosphonate [Compound 4b]
[1]
  inhibitory activity against respiratory syncytial virus (in words): slight inhibition; also recorded: modest inhibitory activity
[2]
  EC50: > 100 µM
HeLa cells; [7]
  Minimum cytotoxic concentration: >100 µM
Coxsackie virus B4 [3]; HeLa cell cultures
  EC50: > 100 µM

## Diethyl [(4‐(1‐(2,3,5‐tri‐O‐benzoyl‐β‐D‐ribofuranos‐1‐yl)‐1,2,3‐triazol‐4‐yl)phenyl)(4‐bromophenylamino)methyl]phosphonate [Compound 4d]
[2]
  EC50: > 100 µM
HeLa cells; [7]
  Minimum cytotoxic concentration: >100 µM
Coxsackie virus B4 [3]; HeLa cell cultures
  EC50: > 100 µM

## Diethyl [(4‐(1‐(2,3,5‐tri‐O‐benzoyl‐β‐D‐ribofuranos‐1‐yl)‐1,2,3‐triazol‐4‐yl)phenyl)(benzylamino)methyl]phosphonate [Compound 4h]
Coxsackie virus B4 [4]
  activity against Coxsackie virus B4 (in words): some activity; also recorded: modest inhibitory activity
Coxsackie virus B4 [4]; read-out: EC50 Coxsackie virus B4, reduce virus-induced cytopathogenicity by 50%
  EC50: 20 µM
Vero cells; [7]
  Minimum cytotoxic concentration: >100 µM
Coxsackie virus B4 [3]; HeLa cells
  activity against Coxsackie virus B4 (in words): no activity

## Diethyl [(4‐(1‐(β‐D‐ribofuranos‐1‐yl)‐1,2,3‐triazol‐4‐yl)phenyl)(2‐bromophenylamino)methyl]phosphonate [Compound 5c]
[5]
  activity against TK+ VZV strain (in words): weak activity
  activity against varicella‐zoster virus (in words): modest activity
[6]
  activity against TK− VZV strain (in words): weak activity

## Diethyl [(4‐(1‐(β‐D‐ribofuranos‐1‐yl)‐1,2,3‐triazol‐4‐yl)phenyl)(2‐naphthalenylamino)methyl]phosphonate [Compound 5g]
[5]
  activity against TK+ VZV strain (in words): weak activity
  activity against varicella‐zoster virus (in words): modest activity
[6]
  activity against TK− VZV strain (in words): weak activity

## Diethyl [(4‐(1‐(β‐D‐ribofuranos‐1‐yl)‐1,2,3‐triazol‐4‐yl)phenyl)(4‐chloro‐2‐methylphenylamino)methyl]phosphonate [Compound 5f]
[5]
  activity against TK+ VZV strain (in words): weak activity
  activity against varicella‐zoster virus (in words): modest activity
[6]
  activity against TK− VZV strain (in words): weak activity

## dextran sulfate [DS‐10.000, reference compound]
Coxsackie virus B4 [4]; unit of the DS-10.000 line
  EC50 Coxsackie virus B4: >100 µg/mL
Reovirus‐1; [8]
  EC50 Reovirus‐1: >100 µg/mL
Vero cells; unit of the DS-10.000 line
  Minimum cytotoxic concentration: >100 µg/mL
[1]; [9]
  EC50 Respiratory syncytial virus: 1.3 ± 0.7 µg/mL
[2]
  EC50 Vesicular stomatitis virus: 12 µg/mL
HeLa cells; unit of the DS-10.000 line
  Minimum cytotoxic concentration: >100 µg/mL
Punta Toro virus; [8]
  EC50 Punta Toro virus: 8.9 µg/mL
Coxsackie virus B4 [3]; [9]
  EC50 Coxsackie virus B4: >100 µg/mL
Parainfluenza‐3 virus; [8]
  EC50 Parainfluenza‐3 virus: >100 µg/mL
Sindbis virus; [8]
  EC50 Sindbis virus: 8.9 µg/mL
